Data: patent US6706663B2, “Herbicidal 3-heterocyclic substituted benzisothiazole and benzisoxazole compounds” (Wyeth, priority 2000, dated 2004)

Tests used:
[1] = system: ABUTH (Abutilon theophrasti); assay: Postemergence herbicidal evaluation; assay type: in vivo, Medic.
How it was run: (§1)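 Visual 0–9 injury scores versus control plants, covering stand, vigour, malformation, size, chlorosis and general appearance, taken four to five weeks post-spray and averaged over replicate tests. Plants were sprayed at roughly two weeks old and held on greenhouse benches.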

GALAP (Galium aparine) [2] = assay: Postemergence herbicidal evaluation; assay type: in vivo
How it was run: as §1

[3] = system: IPOHE (Ipomoea hederacea); assay: Postemergence herbicidal evaluation; assay type: in vivo, (L.) Jacq.
How it was run: as §1

SETVI (Setaria viridis) [4] = assay: Postemergence herbicidal evaluation; assay type: in vivo, (L.) Beau
How it was run: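 Visual injury score (0-9: stand, vigor, malformation, size, chlorosis, overall appearance vs untreated control) taken four to five weeks post-spray. Two-week-old seedlings received about 0.0040 to 1.000 kg/ha active compound in acetone/water with 0.5% TWEEN 20.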

[5] = system: GLXMAW (Soybean, Williams); assay: Postemergence herbicidal evaluation; assay type: in vivo, Glycine max, (L.) Merr. cv Williams
How it was run: as §1

[6] = system: TRZAWR (Wheat, Winter, cv Riband); assay: Postemergence herbicidal evaluation; assay type: in vivo, Triticum aestivum
How it was run: as §1

[7] = system: ABUTH (Abutilon theophrasti); assay: Preemergence herbicidal evaluation; assay type: in vivo, Medic.; details: preemergence, rated 4-5 weeks after treatment
[8] = system: AMBEL (Ambrosia artemisifolia); assay: Preemergence herbicidal evaluation; assay type: in vivo, L.; details: preemergence, rated 4-5 weeks after treatment
How it was run: (§2)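 Visual 0-9 rating versus untreated control, taken four to five weeks post-treatment, scoring stand, vigor, malformation, size, chlorosis and overall appearance. Compound applied as aqueous acetone spray to freshly seeded soil cups, then kept under standard greenhouse care.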

[9] = system: CASOB (Cassia obtusifolia); assay: Preemergence herbicidal evaluation; assay type: in vivo, L.; details: preemergence, rated 4-5 weeks after treatment
How it was run: as §2

[10] = system: CHEAL (Chenopodium album); assay: Preemergence herbicidal evaluation; assay type: in vivo, L.; details: preemergence, rated 4-5 weeks after treatment
How it was run: as §2

GALAP (Galium aparine) [11] = assay: Preemergence herbicidal evaluation; assay type: in vivo; details: preemergence, rated 4-5 weeks after treatment
How it was run: as §2

[12] = system: ECHCG (Echinochloa crus-galli); assay: Preemergence herbicidal evaluation; assay type: in vivo, (L.) Beau; details: preemergence, rated 4-5 weeks after treatment
How it was run: as §2

SETVI (Setaria viridis) [13] = assay: Preemergence herbicidal evaluation; assay type: in vivo, (L.) Beau; details: preemergence, rated 4-5 weeks after treatment
How it was run: as §2

ZEAMX (Corn, Field) = assay: Preemergence herbicidal evaluation; assay type: in vivo, Zea mays, L.; details: preemergence, rated 4-5 weeks after treatment
[14] = system: CYPSE (Cyperus serotinus); assay: Flooded paddy, preemergence weed control; assay type: in vivo, Rottb.; details: rated 3-4 weeks after treatment, 0-9 rating scale
How it was run: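 Herbicidal effect was scored visually on a 0–9 scale against an untreated control 3–4 weeks after treatment. Compounds were applied preemergence as 50/50 v/v aqueous/acetone mixtures into flood water (1.5–3 cm deep over silt loam), at roughly 0.0080 to 0.1250 kg/ha active ingredient.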

[15] = system: MOOVA (Monochoria vaginalis); assay: Flooded paddy, preemergence weed control; assay type: in vivo, Presl.; details: rated 3-4 weeks after treatment, 0-9 rating scale
How it was run: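 Plants were established from seed or propagating organs in flooded silt loam, with the water surface held 1.5 to 3 cm above the soil for the entire experiment. Injury was assessed visually against a control and given a 0-9 score.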

ORYSAT (Rice, Tebonnet) = assay: Flooded paddy, post-transplant rice tolerance; assay type: in vivo, Oryza sativa, (L.) Tebonnet; details: flooded paddy, post-transplant rice, rated 3-4 weeks after treatment, 0-9 rating scale
How it was run: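 Visual 0–9 injury rating against a control, covering stand, vigor, malformation, size, chlorosis and overall appearance. Treatment was post-transplant onto flooded containers (water 1.5–3 cm deep, silt loam) holding two ten-day-old cv. Tebonnet seedlings, maintained on greenhouse benches.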

Cc1nnc(-c2nsc3ccc(-n4c(=O)cc(C(F)(F)F)n(C)c4=O)cc23)s1 [Compound 17, 1-methyl-3-[3-(5-methyl-1,3,4-thiadiazol-2-yl)-1,2-benzisothiazol-5-yl]-6-(trifluoromethyl)uracil]
4.0: AMBEL preemergence herbicidal rating ([8]; Rate 0.0620 kg/ha)
1.0: Postemergence herbicidal rating, GALAP (GALAP (Galium aparine) [2]; rate 0.0320 kg/ha) | Postemergence herbicidal rating, GALAP (GALAP (Galium aparine) [2]; rate 0.0620 kg/ha) | ECHCG preemergence herbicidal rating ([12]; Rate 0.1250 kg/ha)
0.0: Postemergence herbicidal rating, SETVI (SETVI (Setaria viridis) [4]; rate 0.0320 kg/ha) | Postemergence herbicidal rating, SETVI (SETVI (Setaria viridis) [4]; rate 0.0620 kg/ha) | CASOB preemergence herbicidal rating ([9]; Rate 0.0620 kg/ha) | CASOB preemergence herbicidal rating ([9]; Rate 0.1250 kg/ha) | ECHCG preemergence herbicidal rating ([12]; Rate 0.0620 kg/ha) | SETVI preemergence herbicidal rating (SETVI (Setaria viridis) [13]; Rate 0.0620 kg/ha) | herbicidal rating, CYPSE ([14]; rate 0.0080 kg/ha) | herbicidal rating, ORYSAT (rice tolerance) (ORYSAT (Rice, Tebonnet); rate 0.0080 kg/ha)
5.0: Postemergence herbicidal rating, GLXMAW ([5]; rate 0.0320 kg/ha) | AMBEL preemergence herbicidal rating ([8]; Rate 0.1250 kg/ha) | ECHCG preemergence herbicidal rating ([12]; Rate 0.2500 kg/ha)
3.5: Postemergence herbicidal rating, TRZAWR ([6]; rate 0.2500 kg/ha)
8.0: Postemergence herbicidal rating, GLXMAW ([5]; rate 0.1250 kg/ha) | ZEAMX preemergence herbicidal rating (ZEAMX (Corn, Field); Rate 0.2500 kg/ha)
7.0: Postemergence herbicidal rating, SETVI (SETVI (Setaria viridis) [4]; rate 0.2500 kg/ha) | GALAP preemergence herbicidal rating (GALAP (Galium aparine) [11]; Rate 0.0620 kg/ha) | ZEAMX preemergence herbicidal rating (ZEAMX (Corn, Field); Rate 0.1250 kg/ha)
8.5: Postemergence herbicidal rating, GLXMAW ([5]; rate 0.2500 kg/ha)
9.0: Postemergence herbicidal rating, ABUTH ([1]; rate 0.0320 kg/ha) | Postemergence herbicidal rating, ABUTH ([1]; rate 0.0620 kg/ha) | Postemergence herbicidal rating, ABUTH ([1]; rate 0.1250 kg/ha) | Postemergence herbicidal rating, ABUTH ([1]; rate 0.2500 kg/ha) | Postemergence herbicidal rating, IPOHE ([3]; rate 0.0320 kg/ha) | Postemergence herbicidal rating, IPOHE ([3]; rate 0.0620 kg/ha) | Postemergence herbicidal rating, IPOHE ([3]; rate 0.1250 kg/ha) | Postemergence herbicidal rating, IPOHE ([3]; rate 0.2500 kg/ha) | ABUTH preemergence herbicidal rating ([7]; Rate 0.0620 kg/ha) | ABUTH preemergence herbicidal rating ([7]; Rate 0.1250 kg/ha) | ABUTH preemergence herbicidal rating ([7]; Rate 0.2500 kg/ha) | AMBEL preemergence herbicidal rating ([8]; Rate 0.2500 kg/ha) | CHEAL preemergence herbicidal rating ([10]; Rate 0.0620 kg/ha) | CHEAL preemergence herbicidal rating ([10]; Rate 0.1250 kg/ha) | CHEAL preemergence herbicidal rating ([10]; Rate 0.2500 kg/ha) | GALAP preemergence herbicidal rating (GALAP (Galium aparine) [11]; Rate 0.1250 kg/ha) | GALAP preemergence herbicidal rating (GALAP (Galium aparine) [11]; Rate 0.2500 kg/ha) | SETVI preemergence herbicidal rating (SETVI (Setaria viridis) [13]; Rate 0.1250 kg/ha) | SETVI preemergence herbicidal rating (SETVI (Setaria viridis) [13]; Rate 0.2500 kg/ha) | herbicidal rating, MOOVA ([15]; rate 0.0320 kg/ha) | herbicidal rating, MOOVA ([15]; rate 0.1250 kg/ha)
3.0: Postemergence herbicidal rating, SETVI (SETVI (Setaria viridis) [4]; rate 0.1250 kg/ha) | Postemergence herbicidal rating, TRZAWR ([6]; rate 0.0320 kg/ha) | Postemergence herbicidal rating, TRZAWR ([6]; rate 0.0620 kg/ha) | Postemergence herbicidal rating, TRZAWR ([6]; rate 0.1250 kg/ha) | CASOB preemergence herbicidal rating ([9]; Rate 0.2500 kg/ha) | herbicidal rating, CYPSE ([14]; rate 0.0320 kg/ha)
6.5: Postemergence herbicidal rating, GLXMAW ([5]; rate 0.0620 kg/ha)
4.5: herbicidal rating, CYPSE ([14]; rate 0.1250 kg/ha) | herbicidal rating, ORYSAT (rice tolerance) (ORYSAT (Rice, Tebonnet); rate 0.1250 kg/ha)
2.5: herbicidal rating, ORYSAT (rice tolerance) (ORYSAT (Rice, Tebonnet); rate 0.0320 kg/ha)
6.0: Postemergence herbicidal rating, GALAP (GALAP (Galium aparine) [2]; rate 0.1250 kg/ha) | Postemergence herbicidal rating, GALAP (GALAP (Galium aparine) [2]; rate 0.2500 kg/ha) | ZEAMX preemergence herbicidal rating (ZEAMX (Corn, Field); Rate 0.0620 kg/ha) | herbicidal rating, MOOVA ([15]; rate 0.0080 kg/ha)

CN(C(=O)c1nsc2ccc(-n3c(=O)cc(C(F)(F)F)n(C)c3=O)cc12)c1ccc(Cl)cc1 [Compound 18, 1,2-benzisothiazole-3-carboxanilide, 4′-chloro-5-[3,6-dihydro-3-methyl-2,6-dioxo-4-(trifluoromethyl)-1(2H)-pyrimidinyl]-N-methyl-]
1.5: herbicidal rating, ORYSAT (rice tolerance) (ORYSAT (Rice, Tebonnet); rate 0.0320 kg/ha)
9.0: Postemergence herbicidal rating, ABUTH ([1]; rate 0.0320 kg/ha) | Postemergence herbicidal rating, ABUTH ([1]; rate 0.0620 kg/ha) | Postemergence herbicidal rating, ABUTH ([1]; rate 0.1250 kg/ha) | Postemergence herbicidal rating, ABUTH ([1]; rate 0.2500 kg/ha) | Postemergence herbicidal rating, GALAP (GALAP (Galium aparine) [2]; rate 0.2500 kg/ha) | Postemergence herbicidal rating, IPOHE ([3]; rate 0.0320 kg/ha) | Postemergence herbicidal rating, IPOHE ([3]; rate 0.0620 kg/ha) | Postemergence herbicidal rating, IPOHE ([3]; rate 0.1250 kg/ha) | Postemergence herbicidal rating, IPOHE ([3]; rate 0.2500 kg/ha) | Postemergence herbicidal rating, SETVI (SETVI (Setaria viridis) [4]; rate 0.2500 kg/ha) | ABUTH preemergence herbicidal rating ([7]; Rate 0.0620 kg/ha) | ABUTH preemergence herbicidal rating ([7]; Rate 0.1250 kg/ha) | ABUTH preemergence herbicidal rating ([7]; Rate 0.2500 kg/ha) | AMBEL preemergence herbicidal rating ([8]; Rate 0.1250 kg/ha) | AMBEL preemergence herbicidal rating ([8]; Rate 0.2500 kg/ha) | CHEAL preemergence herbicidal rating ([10]; Rate 0.0620 kg/ha) | CHEAL preemergence herbicidal rating ([10]; Rate 0.1250 kg/ha) | CHEAL preemergence herbicidal rating ([10]; Rate 0.2500 kg/ha) | GALAP preemergence herbicidal rating (GALAP (Galium aparine) [11]; Rate 0.2500 kg/ha) | ECHCG preemergence herbicidal rating ([12]; Rate 0.2500 kg/ha) | SETVI preemergence herbicidal rating (SETVI (Setaria viridis) [13]; Rate 0.1250 kg/ha) | SETVI preemergence herbicidal rating (SETVI (Setaria viridis) [13]; Rate 0.2500 kg/ha) | herbicidal rating, MOOVA ([15]; rate 0.0320 kg/ha) | herbicidal rating, MOOVA ([15]; rate 0.1250 kg/ha)
0.0: Postemergence herbicidal rating, SETVI (SETVI (Setaria viridis) [4]; rate 0.0320 kg/ha) | Postemergence herbicidal rating, SETVI (SETVI (Setaria viridis) [4]; rate 0.0620 kg/ha) | CASOB preemergence herbicidal rating ([9]; Rate 0.0620 kg/ha) | GALAP preemergence herbicidal rating (GALAP (Galium aparine) [11]; Rate 0.0620 kg/ha) | GALAP preemergence herbicidal rating (GALAP (Galium aparine) [11]; Rate 0.1250 kg/ha) | ECHCG preemergence herbicidal rating ([12]; Rate 0.0620 kg/ha) | herbicidal rating, MOOVA ([15]; rate 0.0080 kg/ha) | herbicidal rating, ORYSAT (rice tolerance) (ORYSAT (Rice, Tebonnet); rate 0.0080 kg/ha)
4.0: Postemergence herbicidal rating, GALAP (GALAP (Galium aparine) [2]; rate 0.0620 kg/ha) | Postemergence herbicidal rating, TRZAWR ([6]; rate 0.0620 kg/ha) | herbicidal rating, CYPSE ([14]; rate 0.0320 kg/ha) | herbicidal rating, CYPSE ([14]; rate 0.1250 kg/ha)
7.0: AMBEL preemergence herbicidal rating ([8]; Rate 0.0620 kg/ha) | ZEAMX preemergence herbicidal rating (ZEAMX (Corn, Field); Rate 0.0620 kg/ha)
3.0: Postemergence herbicidal rating, TRZAWR ([6]; rate 0.0320 kg/ha)
2.0: Postemergence herbicidal rating, GALAP (GALAP (Galium aparine) [2]; rate 0.0320 kg/ha) | ECHCG preemergence herbicidal rating ([12]; Rate 0.1250 kg/ha)
8.5: Postemergence herbicidal rating, GLXMAW ([5]; rate 0.2500 kg/ha)
5.0: Postemergence herbicidal rating, SETVI (SETVI (Setaria viridis) [4]; rate 0.1250 kg/ha) | Postemergence herbicidal rating, TRZAWR ([6]; rate 0.1250 kg/ha) | herbicidal rating, ORYSAT (rice tolerance) (ORYSAT (Rice, Tebonnet); rate 0.1250 kg/ha)
1.0: CASOB preemergence herbicidal rating ([9]; Rate 0.1250 kg/ha) | CASOB preemergence herbicidal rating ([9]; Rate 0.2500 kg/ha)
6.0: Postemergence herbicidal rating, GALAP (GALAP (Galium aparine) [2]; rate 0.1250 kg/ha) | Postemergence herbicidal rating, GLXMAW ([5]; rate 0.0320 kg/ha) | Postemergence herbicidal rating, TRZAWR ([6]; rate 0.2500 kg/ha)
8.0: Postemergence herbicidal rating, GLXMAW ([5]; rate 0.0620 kg/ha) | Postemergence herbicidal rating, GLXMAW ([5]; rate 0.1250 kg/ha) | SETVI preemergence herbicidal rating (SETVI (Setaria viridis) [13]; Rate 0.0620 kg/ha) | ZEAMX preemergence herbicidal rating (ZEAMX (Corn, Field); Rate 0.1250 kg/ha) | ZEAMX preemergence herbicidal rating (ZEAMX (Corn, Field); Rate 0.2500 kg/ha)
